# In ChEMBL document CHEMBL1201862, “PubChem BioAssay data set” (2004):
#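 48-hour exposure; five concentrations; linearly interpolated endpoints. GI50 marks 50% less growth.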 Activity calls are given as the source filed them. Rule as the data show it: active = GI50 up to about 1.1 µM and inactive = higher.
# What was measured:
# Assay in all cases: NCI-60 cell line screen, 48 h
# 786-0 = system: 786-0
# A549 = system: A549
# ACHN = system: ACHN
# BT-549 = system: BT-549
# CAKI-1 = system: CAKI-1
# DU-145 = system: DU-145
# EKVX = system: EKVX
# HCC 2998 = system: HCC 2998
# HCT-15 = system: HCT-15
# HOP-62 = system: HOP-62
# HT-29 = system: HT-29
# Hs-578T = system: Hs-578T
# K562 = system: K562
# MCF7 = system: MCF7
# MDA-MB-231 = system: MDA-MB-231
# MDA-MB-435 = system: MDA-MB-435
# MDA-N = system: MDA-N
# MOLT-4 = system: MOLT-4
# NCI-H23 = system: NCI-H23
# NCI-H460 = system: NCI-H460
# NCI/ADR-RES = system: NCI/ADR-RES
# OVCAR-3 = system: OVCAR-3
# OVCAR-4 = system: OVCAR-4
# OVCAR-5 = system: OVCAR-5
# PC-3 = system: PC-3
# RXF 393 = system: RXF 393
# SF-268 = system: SF-268
# SF-295 = system: SF-295
# SF-539 = system: SF-539
# SK-MEL-28 = system: SK-MEL-28
# SK-MEL-2 = system: SK-MEL-2
# SK-OV-3 = system: SK-OV-3
# SN12C = system: SN12C
# SW-620 = system: SW-620
# U-251 = system: U-251
# UACC-257 = system: UACC-257
# UO-31 = system: UO-31
# CCRF-CEM = system: CCRF-CEM
# COLO 205 = system: COLO 205
# HCT-116 = system: HCT-116
# HOP-92 = system: HOP-92
# IGROV-1 = system: IGROV-1
# KM12 = system: KM12
# LOX IMVI = system: LOX IMVI
# M14 = system: M14
# Malme-3M = system: Malme-3M
# NCI-H226 = system: NCI-H226
# NCI-H522 = system: NCI-H522
# OVCAR-8 = system: OVCAR-8
# SK-MEL-5 = system: SK-MEL-5
# SNB-19 = system: SNB-19
# SNB-75 = system: SNB-75
# SR = system: SR
# TK-10 = system: TK-10
# UACC-62 = system: UACC-62
# A498 = system: A498
# HL-60 = system: HL-60
# RPMI-8226 = system: RPMI-8226
# T47D = system: T47D
compound,measurement,setting,value
NC(CCC(=O)NC(CSC(=O)N(O)c1ccc(Br)cc1)C(=O)NCC(=O)O)C(=O)O (centres undefined),GI50,786-0,> 50 µM (inactive)
same,GI50,A549,> 50 µM (inactive)
same,GI50,ACHN,> 50 µM (inactive)
same,GI50,BT-549,> 50 µM (inactive)
same,GI50,CAKI-1,> 50 µM (inactive)
same,GI50,DU-145,> 50 µM (inactive)
same,GI50,EKVX,> 50 µM (inactive)
same,GI50,HCC 2998,> 50 µM (inactive)
same,GI50,HCT-15,> 50 µM
same,GI50,HOP-62,> 50 µM (inactive)
same,GI50,HT-29,> 50 µM (inactive)
same,GI50,Hs-578T,27.4 µM (inactive)
same,GI50,K562,> 50 µM (inactive)
same,GI50,MCF7,> 50 µM (inactive)
same,GI50,MDA-MB-231,> 50 µM (inactive)
same,GI50,MDA-MB-435,> 50 µM (inactive)
same,GI50,MDA-N,> 50 µM (inactive)
same,GI50,MOLT-4,> 50 µM (inactive)
same,GI50,NCI-H23,> 50 µM (inactive)
same,GI50,NCI-H460,> 50 µM (inactive)
same,GI50,NCI/ADR-RES,> 50 µM (inactive)
same,GI50,OVCAR-3,> 50 µM (inactive)
same,GI50,OVCAR-4,> 50 µM (inactive)
same,GI50,OVCAR-5,> 50 µM (inactive)
same,GI50,PC-3,> 50 µM (inactive)
same,GI50,RXF 393,> 50 µM (inactive)
same,GI50,SF-268,> 50 µM (inactive)
same,GI50,SF-295,> 50 µM (inactive)
same,GI50,SF-539,> 50 µM (inactive)
same,GI50,SK-MEL-28,> 50 µM (inactive)
same,GI50,SK-MEL-2,> 50 µM (inactive)
same,GI50,SK-OV-3,> 50 µM (inactive)
same,GI50,SN12C,> 50 µM (inactive)
same,GI50,SW-620,> 50 µM (inactive)
same,GI50,U-251,> 50 µM (inactive)
same,GI50,UACC-257,> 50 µM (inactive)
same,GI50,UO-31,> 50 µM (inactive)
COC(=O)Cc1c(C(=O)CC(C)(C)n2cnc(CCN3C(=O)CCC3=O)c2)[nH]c2ccccc12,GI50,786-0,> 100 µM (inactive)
same,GI50,A549,> 100 µM (inactive)
same,GI50,ACHN,> 100 µM (inactive)
same,GI50,BT-549,> 100 µM (inactive)
same,GI50,CAKI-1,> 100 µM (inactive)
same,GI50,CCRF-CEM,> 100 µM (inactive)
same,GI50,COLO 205,> 100 µM (inactive)
same,GI50,DU-145,> 100 µM (inactive)
same,GI50,EKVX,> 100 µM (inactive)
same,GI50,HCT-116,> 100 µM (inactive)
same,GI50,HCT-15,> 100 µM
same,GI50,HOP-92,15 µM (inactive)
same,GI50,HT-29,> 100 µM (inactive)
same,GI50,Hs-578T,> 100 µM (inactive)
same,GI50,IGROV-1,89.3 µM (inactive)
same,GI50,K562,> 100 µM (inactive)
same,GI50,KM12,> 100 µM (inactive)
same,GI50,LOX IMVI,> 100 µM (inactive)
same,GI50,M14,> 100 µM (inactive)
same,GI50,MCF7,> 100 µM (inactive)
same,GI50,MDA-MB-231,> 100 µM (inactive)
same,GI50,MDA-MB-435,> 100 µM (inactive)
same,GI50,MDA-N,> 100 µM (inactive)
same,GI50,MOLT-4,> 100 µM (inactive)
same,GI50,Malme-3M,> 100 µM (inactive)
same,GI50,NCI-H226,> 100 µM (inactive)
same,GI50,NCI-H23,> 100 µM (inactive)
same,GI50,NCI-H460,> 100 µM (inactive)
same,GI50,NCI-H522,32.4 µM (inactive)
same,GI50,NCI/ADR-RES,> 100 µM (inactive)
same,GI50,OVCAR-3,> 100 µM (inactive)
same,GI50,OVCAR-4,> 100 µM (inactive)
same,GI50,OVCAR-5,> 100 µM (inactive)
same,GI50,OVCAR-8,> 100 µM (inactive)
same,GI50,PC-3,> 100 µM (inactive)
same,GI50,RXF 393,15.4 µM (inactive)
same,GI50,SF-268,> 100 µM (inactive)
same,GI50,SF-295,> 100 µM (inactive)
same,GI50,SF-539,> 100 µM (inactive)
same,GI50,SK-MEL-28,> 100 µM (inactive)
same,GI50,SK-MEL-2,> 100 µM (inactive)
same,GI50,SK-MEL-5,> 100 µM (inactive)
same,GI50,SK-OV-3,> 100 µM (inactive)
same,GI50,SN12C,> 100 µM (inactive)
same,GI50,SNB-19,> 100 µM (inactive)
same,GI50,SNB-75,27 µM (inactive)
same,GI50,SR,34.5 µM (inactive)
same,GI50,SW-620,> 100 µM (inactive)
same,GI50,TK-10,> 100 µM (inactive)
same,GI50,U-251,> 100 µM (inactive)
same,GI50,UACC-257,> 100 µM (inactive)
same,GI50,UACC-62,> 100 µM (inactive)
same,GI50,UO-31,37.5 µM (inactive)
N#Cc1c(N2CCOCC2)ncn(-c2ccccc2)c1=O,GI50,786-0,> 100 µM (inactive)
same,GI50,A498,> 100 µM (inactive)
same,GI50,A549,> 100 µM (inactive)
same,GI50,ACHN,> 100 µM (inactive)
same,GI50,BT-549,> 100 µM (inactive)
same,GI50,CAKI-1,> 100 µM (inactive)
same,GI50,CCRF-CEM,> 100 µM (inactive)
same,GI50,COLO 205,> 100 µM (inactive)
same,GI50,DU-145,> 100 µM (inactive)
same,GI50,EKVX,> 100 µM (inactive)
same,GI50,HCC 2998,> 100 µM (inactive)
same,GI50,HCT-116,> 100 µM (inactive)
same,GI50,HCT-15,> 100 µM
same,GI50,HL-60,3.08 µM (inactive)
same,GI50,HOP-62,> 100 µM (inactive)
same,GI50,HOP-92,> 100 µM (inactive)
same,GI50,IGROV-1,63.4 µM (inactive)
same,GI50,K562,> 100 µM (inactive)
same,GI50,KM12,> 100 µM (inactive)
same,GI50,LOX IMVI,> 100 µM (inactive)
same,GI50,M14,> 100 µM (inactive)
same,GI50,MCF7,> 100 µM (inactive)
same,GI50,MDA-MB-435,> 100 µM (inactive)
same,GI50,MDA-N,> 100 µM (inactive)
same,GI50,MOLT-4,> 100 µM (inactive)
same,GI50,NCI-H226,> 100 µM (inactive)
same,GI50,NCI-H23,> 100 µM (inactive)
same,GI50,NCI-H460,> 100 µM (inactive)
same,GI50,NCI/ADR-RES,> 100 µM (inactive)
same,GI50,OVCAR-3,> 100 µM (inactive)
same,GI50,OVCAR-5,> 100 µM (inactive)
same,GI50,OVCAR-8,> 100 µM (inactive)
same,GI50,PC-3,> 100 µM (inactive)
same,GI50,RPMI-8226,> 100 µM (inactive)
same,GI50,SF-295,> 100 µM (inactive)
same,GI50,SF-539,> 100 µM (inactive)
same,GI50,SK-MEL-28,> 100 µM (inactive)
same,GI50,SK-MEL-2,> 100 µM (inactive)
same,GI50,SK-MEL-5,> 100 µM (inactive)
same,GI50,SK-OV-3,> 100 µM (inactive)
same,GI50,SN12C,> 100 µM (inactive)
same,GI50,SNB-19,> 100 µM (inactive)
same,GI50,SNB-75,> 100 µM (inactive)
same,GI50,SR,> 100 µM (inactive)
same,GI50,SW-620,> 100 µM (inactive)
same,GI50,T47D,> 100 µM (inactive)
same,GI50,U-251,> 100 µM (inactive)
same,GI50,UACC-257,> 100 µM (inactive)
same,GI50,UACC-62,> 100 µM (inactive)
same,GI50,UO-31,59.4 µM (inactive)
COc1ccc(/N=C(/C[S+]([O-])c2ccc(C)cc2)C(F)(F)F)cc1 (centres undefined),GI50,786-0,> 100 µM (inactive)
same,GI50,A549,78 µM (inactive)
same,GI50,ACHN,50.6 µM (inactive)
same,GI50,BT-549,> 100 µM (inactive)
same,GI50,CAKI-1,> 100 µM (inactive)
same,GI50,CCRF-CEM,61.9 µM (inactive)
same,GI50,COLO 205,> 100 µM (inactive)
same,GI50,DU-145,> 100 µM (inactive)
same,GI50,EKVX,> 100 µM (inactive)
same,GI50,HCC 2998,41 µM (inactive)
same,GI50,HCT-116,> 100 µM (inactive)
same,GI50,HCT-15,> 100 µM
same,GI50,HL-60,19.1 µM (inactive)
same,GI50,HOP-92,> 100 µM (inactive)
same,GI50,HT-29,> 100 µM (inactive)
same,GI50,IGROV-1,> 100 µM (inactive)
same,GI50,K562,59.7 µM (inactive)
same,GI50,KM12,27.9 µM (inactive)
same,GI50,LOX IMVI,> 100 µM (inactive)
same,GI50,M14,> 100 µM (inactive)
same,GI50,MCF7,> 100 µM (inactive)
same,GI50,MDA-MB-231,> 100 µM (inactive)
same,GI50,MDA-MB-435,> 100 µM (inactive)
same,GI50,MDA-N,> 100 µM (inactive)
same,GI50,MOLT-4,53.3 µM (inactive)
same,GI50,Malme-3M,> 100 µM (inactive)
same,GI50,NCI-H226,> 100 µM (inactive)
same,GI50,NCI-H23,> 100 µM (inactive)
same,GI50,NCI-H460,> 100 µM (inactive)
same,GI50,NCI-H522,> 100 µM (inactive)
same,GI50,NCI/ADR-RES,> 100 µM (inactive)
same,GI50,OVCAR-3,> 100 µM (inactive)
same,GI50,OVCAR-4,59.7 µM (inactive)
same,GI50,OVCAR-5,> 100 µM (inactive)
same,GI50,OVCAR-8,> 100 µM (inactive)
same,GI50,PC-3,26.5 µM (inactive)
same,GI50,RXF 393,> 100 µM (inactive)
same,GI50,SF-295,56.2 µM (inactive)
same,GI50,SF-539,> 100 µM (inactive)
same,GI50,SK-MEL-28,> 100 µM (inactive)
same,GI50,SK-MEL-2,50.2 µM (inactive)
same,GI50,SK-MEL-5,> 100 µM (inactive)
same,GI50,SK-OV-3,> 100 µM (inactive)
same,GI50,SN12C,> 100 µM (inactive)
same,GI50,SNB-19,71.8 µM (inactive)
same,GI50,SNB-75,> 100 µM (inactive)
same,GI50,SR,> 100 µM (inactive)
same,GI50,SW-620,> 100 µM (inactive)
same,GI50,T47D,> 100 µM (inactive)
same,GI50,TK-10,> 100 µM (inactive)
same,GI50,U-251,> 100 µM (inactive)
same,GI50,UACC-257,> 100 µM (inactive)
same,GI50,UACC-62,10.6 µM (inactive)
same,GI50,UO-31,9.57 µM (inactive)
